pIC50, pKi: −log10 of the molar value. Read-outs that look alike come from different tables or passages of the source.
Key:
[1] = target: T1, recombinant HIV-1 protease (Human immunodeficiency virus type 1 group M subtype B, UniProt P04585); experiment: HIV-1 protease inhibition, cleavage of substrate polypeptide, HPLC-based detection; assay type: biochemical
T1 construct: recombinant HIV-1 protease
Source text: The standard test procedure for HIV-1 protease inhibition uses recombinant HIV-1 protease in an assay which monitors cleavage of a substrate polypeptide using an HPLC-based detection system. Proc. Nat. Acad. Sci. 86, 9752 (1989).

[2] = storage stability as solid or in solution (polymerization / oligomerization); assay type: physicochemical
Source text: The compounds are stable and can be stored for weeks or longer at room temperature without noticeable decomposition in either solid or solution form. In addition, there is no intrinsic toxicity associated with silicon (Friedberg, K. D. and Schiller, E., Handbook on Toxicity of Inorganic Compounds, Eds. Seiler H, G., and Sigel, H.; Marcel Dekker, New York, 1988, pp. 595-617).
The C2 symmetry of the HIV protease has led to the development of C2 symmetric inhibitors such as Merck's L-700, 417. The silanediol analog 9a was prepared from the commercially available dichlorodiphenylsilane. Treatment of this dichlorosilane with the enantiomerically pure lithium reagent 53b led to the symmetric diether 54 in 75% yield. Cleavage of the ethers and oxidation to the diacid was followed by preparation of the diamide 56. For this study, N-benzyl amides were used as the simplest first analog. Hydrolysis of diphenylsilane 56 to the silanediol 9a was effected by treatment with triflic acid in dichloromethane at 0° C. for ten to 30 minutes. Under these conditions, both phenyl groups on silicon are lost very rapidly. We believe that the intermediate formed is not a di-triflate, but is the spirocyclic intermediate 57. Addition of the triflic acid-derived intermediate to an aqueous phase (either acidic, buffered, or basic) serves to finish hydrolysis to the diol 9a. […]

[3] = target: T2, HIV-protease enzyme (Human immunodeficiency virus type 1 group M subtype B, UniProt P04585); experiment: HIV-protease enzyme inhibition (Ki); assay type: biochemical, HIV-1
T2 construct: tested against HIV-protease enzyme (Ki)

[4] = system: HIV-1 virus; experiment: antiviral cell culture assay (IC90); assay type: cell-based
[5] = system: angiotensin-converting enzyme; conditions: Galardy and Kortylewicz 1985; cited from earlier work
[6] = HIV-protease enzyme, read-out: Ki

## O=C(NCc1ccccc1)[C@H](Cc1ccccc1)C[Si](O)(O)C[C@@H](Cc1ccccc1)C(=O)NCc1ccccc1 [Compound 9a, Di-benzyl 2-(S)-6-(S)-dibenzyl-4,4-dihydroxy-4-sila-heptanediamide]
[1]
  pIC50: 5.25
[2]; as a solid or in deuterochloroform solution, for weeks
  storage stability of the pure diol: without polymerization
[2]; taken up in DMSO, one week
  stability in DMSO: fully stable
[3]
  pKi: 5.50

## Di-[1-(S)-(2,(R)-hydroxyindanyl)]2-(S)-6-(S)-dibenzyl-4,4-dihydroxy-4-sila-heptanediamide [Compound 9b]
[4]
  IC90: 170 nM
[3]; [6]
  pKi: 8.57

## O=C(NCc1ccccc1)C(Cc1ccccc1)C[Si]1(CC(Cc2ccccc2)C(=O)NCc2ccccc2)O[Si](CC(Cc2ccccc2)C(=O)NCc2ccccc2)(CC(Cc2ccccc2)C(=O)NCc2ccccc2)O[Si](CC(Cc2ccccc2)C(=O)NCc2ccccc2)(CC(Cc2ccccc2)C(=O)NCc2ccccc2)O[Si](CC(Cc2ccccc2)C(=O)NCc2ccccc2)(CC(Cc2ccccc2)C(=O)NCc2ccccc2)O1 [Compound 61, 1,1,3,3,5,5,7,7-octa(3-[2-(S)-2-phenylmethylpropionyl)]-cyclotetrasiloxane octa(N-phenylmethylamide)]
[3]; [6]
  pKi: 5.64

## CC(C)(C)NC(=O)[C@@H]1CN(Cc2cccnc2)CCN1C[C@@H](O)C[C@@H](Cc1ccccc1)C(=O)N[C@H]1c2ccccc2C[C@H]1O [indinavir, reference compound]
[4]; Human immunodeficiency virus 1
  IC90: 33 nM

## C[Si](C)(O)O [dimethylsilanediol]
[5]
  inhibitor of angiotensin-converting enzyme: inactive

## O=C(NCc1ccccc1)C(Cc1ccccc1)C[Si](O)(CC(Cc1ccccc1)C(=O)NCc1ccccc1)O[Si](O)(CC(Cc1ccccc1)C(=O)NCc1ccccc1)CC(Cc1ccccc1)C(=O)NCc1ccccc1 [Compound 60, 1,3-dihydroxy-1,1,3-3-tetra(3-[2-(S)-2-phenylmethylpropionyl])-disiloxane tetra(N-phenylmethylamide)]
[3]; [6]
  pKi: 5.33
